Data from US20130203718A1 (priority 2010, published 2013).
Read-outs that look alike come from different tables or passages of the source.

Molecular target: T1, hGR (Homo sapiens, UniProt P04150)
T1 construct: expressed in transfected cells; host or cells: HEK 293T
T1 sequence (P04150 1-777): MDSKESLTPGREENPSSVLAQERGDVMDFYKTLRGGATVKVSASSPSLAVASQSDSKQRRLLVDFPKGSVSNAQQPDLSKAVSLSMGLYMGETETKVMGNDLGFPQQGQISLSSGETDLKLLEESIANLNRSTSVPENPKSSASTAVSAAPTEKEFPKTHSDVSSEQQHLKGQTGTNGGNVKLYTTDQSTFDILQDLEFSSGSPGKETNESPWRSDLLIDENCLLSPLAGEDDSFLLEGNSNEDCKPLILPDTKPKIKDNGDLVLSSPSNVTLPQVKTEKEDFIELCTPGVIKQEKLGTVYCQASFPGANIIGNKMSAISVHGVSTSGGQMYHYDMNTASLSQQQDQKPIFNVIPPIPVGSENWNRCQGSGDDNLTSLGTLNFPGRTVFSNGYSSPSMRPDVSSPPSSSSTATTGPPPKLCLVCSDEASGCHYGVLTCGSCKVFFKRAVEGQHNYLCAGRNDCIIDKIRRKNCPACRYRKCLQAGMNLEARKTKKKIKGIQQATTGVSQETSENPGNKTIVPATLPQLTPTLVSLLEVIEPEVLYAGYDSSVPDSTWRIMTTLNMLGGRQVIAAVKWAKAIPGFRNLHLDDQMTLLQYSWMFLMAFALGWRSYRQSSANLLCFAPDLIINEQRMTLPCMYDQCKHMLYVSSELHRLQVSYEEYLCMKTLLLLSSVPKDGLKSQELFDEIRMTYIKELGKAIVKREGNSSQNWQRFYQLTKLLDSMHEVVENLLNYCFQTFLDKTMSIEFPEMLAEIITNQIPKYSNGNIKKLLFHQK
Experiment: APRn selectivity: transactivation in HEK293T cells transiently expressing hGR
Assay type: cell-based
Conditions: for GR Antagonist efficacy (%): dexamethasone 10^−9 M; for Emax: HEK-293T, read-out: GR Agonist efficacy (%)
Experimental: Measurement of the APRn Selectivity in HEK 293T.
The HEK-293T cells were cultured and transfected according to the method described above for the PR transactivation assays. The expression vectors pcDNA-hAR, kindly provided by G. A. Coetzee, pchGR (Hellal-Levy, C et al. FEBS Lett 1999, 464, 9), and pchMR (Fagart, J. et al. EMBO J. 1998, 17, 3317) were used for studying the ability of APRn to activate or inactivate the AR, GR and MR, respectively. For each transfection assays, 2 μg of the expression vector was used together with 7 μg of the GRE2-Luc reporter vector. Dihydrotestosterone (DHT), dexamethasone (Dex) and Aldosterone (Aldo) were selected as AR, GR and MR ligands, respectively. They were used at the concentration of 10^−9 M. The APRn agonist and antagonist efficacy for AR, GR and MR were measured as described above for PR. The results are the mean±SEM of three independent experiments.
Transfection assays were performed in HEK 293T cells by using expression vectors for the hAR, hGR and hMR and the GRE2-Luc reporter used for the PR transactivation assays.

[1] = HEK293T transiently expressing hGR, mean±SEM

Structure (SMILES) | GR Antagonist efficacy (%) [1] [%] | Emax [1] [%] | Emax [%]
CC(=O)[C@H]1CC[C@H]2[C@@H]3CC=C4C[C@@H](F)CC[C@]4(C)[C@H]3CC[C@]12C [APR-16, 3β-Fluoropregn-5-en-20-one] | 0.1 ± 2.2 | 0.25 ± 0.02 | –
C[C@@H]1CCC2C3CC=C4C[C@@H](F)CC[C@]4(C)C3CC[C@]2(C)[C@H]1F (stereo partly drawn) [APR-19, 3β,17α-Difluoro-17α-methyl-D-Homo-pregn-5-ene] | −3.5 ± 1.4 | – | 0.26 ± 0.05
CC#C[C@]1(O)CCC2C3CC[C@H]4CCCC[C@]4(C)C3CC[C@@]21C (stereo partly drawn) [APR-42, 17α-(1-Propynyl)-5α-androstan-17β-ol] | 4.4 ± 3.3 | 0.22 ± 0.07 | –
CC#C[C@]1(O)CCC2C3CC[C@H]4C[C@@H](F)CC[C@]4(C)C3CC[C@@]21C (stereo partly drawn) [APR-43, 3β-Fluoro-17α-(1-propynyl)-5α-androstan-17β-ol] | −9.0 ± 1.7 | – | 0.17 ± 0.05
C[C@]12CCC3C(CC=C4C[C@@H](F)CC[C@@H]43)C1CCC2=O (stereo partly drawn) [APR-47, 3β-Fluoro-19-nor-androst-5-en-17-one] | 1.5 ± 4.3 | – | 0.16 ± 0.02
CC#C[C@]1(O)CCC2C3CC=C4C[C@@H](F)CC[C@@H]4C3CC[C@@]21C (stereo partly drawn) [APR-51, 3β-Fluoro-17α-(1-propynyl)-19-nor-androst-5-en-17β-ol] | 19.3 ± 7.3 | – | 0.29 ± 0.08
CC#C[C@]1(O)CCC2C3CC[C@H]4CCCC[C@@H]4C3CC[C@@]21C (stereo partly drawn) [APR-54, 17α-(1-Propynyl)-19-nor-5-androstan-17β-ol] | −0.1 ± 3.3 | 0.15 ± 0.02 | –
